Source: patent US9329188B2, “Method for detecting invasive microvesicles derived from tumor cells” (University of Notre Dame, priority 2010, dated 2016)

Assays:
[1] = system: parental LOX and LOXARF6-GTP cells; experiment: Microvesicle shedding: microvesicles released into media isolated and quantitated for protein, or surface microvesicles scored; type: cell-based
Experimental: Data from 5 independent experiments is plotted. Standard error bars are shown.
(§1) Standard error bars are shown.
Released microvesicles were isolated and quantitated for protein. The average of three independent experiments with standard error bars for each experimental condition is shown.
Parental LOX and LOXARF6-GTP were treated with 10 μM ML-7 for 2 hrs. Microvesicles released were isolated, quantitated for protein, and the data is shown as fold change in shedding relative to untreated LOX cells.
The total protein content of lysed microvesicles can be calculated, for example by using the Bradford assay (BioRad). This assay utilizes a spectroscopic analysis procedure to measure the concentration of protein in a solution.

ERK = settings: cells treated with 1-butanol
Experimental: Studies have shown that ARF6 stimulates phospholipase D (PLD) activity (C. D'Souza-Schorey et al., Nat. Rev. Mol. Cell Biol. 7, 347-58 (2006)). […] Here, ARF6 regulated PLD activity and its involvement with ERK activation was tested. First, phospho-ERK levels upon PLD inactivation were examined. […] Next, primary alcohols were used to inhibit PLD, which results in the formation of phosphatidylalcohol at the expense of phosphatidic acid by replacing water.

LOX cells = settings: cells expressing constitutively activated MEK; 1-butanol
Description: Next, the role of phospho-ERK levels in microvesicle shedding was investigated. Specifically, microvesicle shedding was examined in LOXARF6-GDP cells after phospho-ERK levels were restored, or after stimulating PLD activity through pathways independent of ARF6. […] Finally, the effect of 1-butanol on microvesicle shedding induced by expression of constitutively activated MEK was investigated.

phospho-MLC [2] = experiment: Phospho-MLC in cell lysates by western blotting, parental LOX and LOXARF6-GTP cells; type: cell-based
Experimental: Additional lanes on the immunoblot between lanes 2 and 3 were spliced out. Band density was measured by densitometric scanning.
(§2) Cell lines as indicated were treated with ML-7, and cell lysates were probed for phospho-MLC and α-tubulin by Western blotting. Band density was measured by densitometric scanning. Fold increase in the ratio of phospho-MLC to α-tubulin in ML-7 treated cells relative to untreated cells is shown.
Lysates of parental LOX and LOXARF6-GTP treated with Go6976 […] for 2 hrs at 37° C. were probed for phospho-MLC and α-tubulin by Western blotting.

phospho-MLC [3] = experiment: Phospho-MLC in cell lysates by western blotting, LOXARF6-GDP cells; type: cell-based; settings: Go6976 10 μM, ML-7 10 μM, U0126 30 μM for 2 hrs at 37° C.
Experimental: Cell lysates were probed for phospho-MLC, phospho-ERK and α-tubulin by western blotting.
as §2

PC3 and SW480 cell lines = settings: MEK inhibition
Description: Vesicle shedding was examined in other tumor cell lines; SW480, a colon carcinoma cell line, PC3, a prostate adenocarcinoma cell line, and MDA-MB-231, an invasive breast tumor cell line.

LOXARF6-GDP cells = experiment: Microvesicle shedding, cells with microvesicles at the cell surface scored; type: cell-based; settings: LOXARF6-GDP cells treated with propranolol or atenolol
Description: as §1
The treated cells were visualized, and those with microvesicles present at the cell surface were scored as described above.

phospho-ERK = experiment: Phospho-ERK and total-ERK in cell lysates, western blotting with densitometry; type: cell-based; settings: LOXARF6-GDP cells; propranolol (0.1 mM), atenolol (10 uM)
Description: The treated cells were probed for phospho-ERK and total-ERK. Band intensities were quantified by densitometry. The average of 3 independent experiments is plotted and standard error bars are shown.

cleaved caspase 3 = experiment: Cleaved caspase 3 as sign of apoptosis; type: cell-based; settings: cells treated with okadaic acid, compared with LOX cells expressing mutant ARF6
[4] = LOX cells treated with blebbistatin or latrunculin A

For CCCCO [1-butanol], the microvesicle shedding ([1]; LOX cells, 0.3% 1-butanol for 30 min, cells with eight or more surface microvesicles scored) was “inhibits”, the ERK activation (ERK) was “inhibits” and the “microvesicle shedding induced by constitutively activated MEK” value (LOX cells) was “little to no effect”.
Cn1c2ccccc2c2c3c(c4c5ccccc5n(CCC#N)c4c21)CNC3=O [Go6976] was tested, and the phospho-MLC levels (phospho-MLC [2]; Go6976 for 2 hrs at 37° C.) was “no decrease” and the “phospho-MLC levels / MLC phosphorylation” value (phospho-MLC [3]) was “decreased”.
In the case of O=S(=O)(c1cccc2c(I)cccc12)N1CCCNCC1 [ML-7], the microvesicle shedding ([1]; parental LOX and LOXARF6-GTP cells, 10 μM ML-7 for 2 hrs) is reported as “blocks”, the MLC phosphorylation (phospho-MLC [2]; 10 μM ML-7 for 2 hrs) is reported as “blocked” and the “phospho-MLC levels / MLC phosphorylation” value (phospho-MLC [3]; listed as ML7) is reported as “little to no effect”.
With N#CC(=C(/N)Sc1ccccc1N)/C(C#N)=C(\N)Sc1ccccc1N [U0126] the “basal as well as ARF6-GTP enhanced microvesicle shedding” value [1] was “significant inhibition”, the phospho-MLC levels (phospho-MLC [2]; U0126 (30 μM)) was “inhibition of phospho-MLC was evident” and the “phospho-MLC levels / MLC phosphorylation” value (phospho-MLC [3]) was “no inhibition”. The microvesicle shedding (PC3 and SW480 cell lines) was “blocked microvesicle shedding”.
In the case of CC(C)NCC(O)COc1ccc(CC(N)=O)cc1 (centres unmarked) [atenolol], the “microvesicle shedding / release” value (LOXARF6-GDP cells) is reported as “did not have any effect” and the phospho-ERK levels (phospho-ERK) is reported as “did not have any effect”.
For Cc1ccc2c(c1)C(=O)C1(O)CCN(c3ccccc3)C1=N2 (centres unmarked) [blebbistatin], the microvesicle formation ([1]; LOX cells in the presence of blebbistatin) was “microvesicles do not form” and the microvesicle shedding [1, 4] was “profoundly affected microvesicle shedding”.
With C/C1=C/C(=O)O[C@@H]2C[C@@H](CC[C@H](C)/C=C\C=C\CC1)O[C@@](O)([C@@H]1CSC(=O)N1)C2 [latrunculin A] the microvesicle shedding [1, 4] was “profoundly affected microvesicle shedding”, the “treated cells exhibiting clustered microvesicles at the cell surface” value ([1]; LOX cells treated with latrunculin A) was 85-90% and the release of microvesicles ([1]; parental LOX and LOXARF6-GTP cells, 2 μM Latrunculin A for 45 min, released microvesicles quantitated for protein) was “inhibited”.
In the case of C=C1[C@@H](O)[C@@H]2O[C@]3(CC[C@H](/C=C/[C@@H](C)[C@@H]4CC(C)=C[C@@]5(O[C@H](C[C@@](C)(O)C(=O)O)CC[C@H]5O)O4)O3)CC[C@H]2O[C@@H]1[C@@H](O)C[C@H](C)[C@H]1O[C@@]2(CCCCO2)CC[C@H]1C [okadaic acid], the “cleaved caspase 3 in cells” value (cleaved caspase 3) is reported as “present in a higher proportion of the cells”.
In the case of CC(C)NCC(O)COc1cccc2ccccc12 (centres unmarked) [propranolol], the “microvesicle shedding / release” value (LOXARF6-GDP cells) is reported as “induced microvesicle shedding”, the “microvesicle shedding / release” value (LOXARF6-GDP cells; listed as Propranolol) is reported as “restored vesicle shedding” and the phospho-ERK levels (phospho-ERK) is reported as “restored phospho-ERK levels”.
